From US20070259875A1, “Triaryl substituted imidazole derivatives and taste-inhibiting uses thereof” (priority 2006, published 2007) come the findings set out here.

Series [1] deals with T1, human TRPM5 (Homo sapiens, UniProt Q9NZQ8).
T1 construct: expressed in transfected cells
T1 sequence (Q9NZQ8 1-1165): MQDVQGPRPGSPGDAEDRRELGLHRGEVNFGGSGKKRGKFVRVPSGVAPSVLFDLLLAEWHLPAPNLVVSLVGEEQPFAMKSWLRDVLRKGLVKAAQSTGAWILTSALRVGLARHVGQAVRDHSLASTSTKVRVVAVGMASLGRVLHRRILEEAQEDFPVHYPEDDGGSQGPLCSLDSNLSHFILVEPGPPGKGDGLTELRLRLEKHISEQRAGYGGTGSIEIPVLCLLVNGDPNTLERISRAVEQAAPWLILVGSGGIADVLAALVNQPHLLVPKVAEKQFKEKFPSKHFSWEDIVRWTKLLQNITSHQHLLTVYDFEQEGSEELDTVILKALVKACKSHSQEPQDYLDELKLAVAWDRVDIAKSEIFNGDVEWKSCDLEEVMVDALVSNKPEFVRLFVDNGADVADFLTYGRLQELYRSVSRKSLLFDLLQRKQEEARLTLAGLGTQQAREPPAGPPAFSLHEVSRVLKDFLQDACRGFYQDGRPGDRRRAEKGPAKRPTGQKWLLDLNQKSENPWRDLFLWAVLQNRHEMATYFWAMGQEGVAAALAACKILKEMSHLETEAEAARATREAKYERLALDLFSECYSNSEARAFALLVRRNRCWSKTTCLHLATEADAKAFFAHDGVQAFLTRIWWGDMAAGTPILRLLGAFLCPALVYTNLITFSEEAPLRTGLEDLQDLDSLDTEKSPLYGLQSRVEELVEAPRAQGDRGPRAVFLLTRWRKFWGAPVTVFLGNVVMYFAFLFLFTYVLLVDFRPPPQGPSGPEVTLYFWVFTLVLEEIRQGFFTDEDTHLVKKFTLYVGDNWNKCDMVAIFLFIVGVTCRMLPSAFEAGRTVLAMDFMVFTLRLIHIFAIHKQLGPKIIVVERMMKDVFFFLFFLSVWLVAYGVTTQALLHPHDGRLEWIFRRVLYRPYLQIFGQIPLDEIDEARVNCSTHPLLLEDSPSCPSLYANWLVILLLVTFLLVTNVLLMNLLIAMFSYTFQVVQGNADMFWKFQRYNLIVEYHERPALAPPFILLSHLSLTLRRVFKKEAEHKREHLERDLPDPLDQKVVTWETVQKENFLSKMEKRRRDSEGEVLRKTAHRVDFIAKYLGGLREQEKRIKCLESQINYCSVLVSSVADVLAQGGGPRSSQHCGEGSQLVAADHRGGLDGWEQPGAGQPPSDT
As to the kind of experiment: FLIPR membrane potential dye screening assay, ATP-stimulated, TRPM5-transfected HEK293 cells. It counts as cell-based. Particulars: maximum percent inhibition at concentrations between 10 μM and 100 μM; HEK293 cells with human TRPM5; 10 μM ATP; versus negative control wells. As to the method: Modulation of the activity of human taste receptor proteins was measured in live cells on a fluorescent imaging plate reader (FLIPR). The basis of the assay (shown in FIG. 1) is the calcium-dependent activation of the ion channel which occurs via by activation of a G-protein coupled receptor (GPCR). GPCR activation by an appropriate agonist causes a transient increase in intercellular Ca^2+ ion concentration which in turn causes the ion channel to open, allowing an influx of Na^+ ions. This influx leads to a change in the membrane potential of the cell, which can be monitored as a change in the fluorescent signal from voltage-dependent (membrane potential) fluorescent dyes.
A schematic representation of the assay is shown in FIGS. 2(A) and 2(B), where traces of fluorescent response versus time are shown for cells transfected with a plasmid encoding human TRPM5 or cells containing sham plasmid controls.
For the screening assay, the human TRPM5 gene was cloned, HEK293 cells were transfected with a plasmid containing the gene, and a stable, high expression clone was chosen for the screen. Cells were grown in standard media at 37° C. The day before screening, the cells were removed from flasks and added to 384 well clear bottom plates (12K cells in 20 μL/well). On the assay day, 20 μL of membrane potential dye (Part No. R8123, Molecular Devices Corp.) was added to the cells and dye was allowed to be taken up, i.e., loaded, into the cells for 1 hr at 37° C. […] The assay was started by addition of 10 μL of solution from the compound plate into the cell plate. During this process, continuous fluorescent recordings were made simultaneously for all wells. After addition of the compound solution, the tips were automatically washed and 10 μL of a stimulation solution of 60 μM ATP (an agonist for an endogenous purinurgic GPCR), was added to all wells of the cell plate (to give a final concentration of 10 μM ATP). The height of the response was calculated and percent inhibition values, versus negative control wells, was calculated for the test samples.
(§1) Unless otherwise indicated, the data in Table 1 were determined using the assays described above, providing maximum percent inhibition data at concentrations between 10 μM and 100 μM.

In series [2] the test system is GPCR-mediated calcium activation step. As to the kind of experiment: Calcium counterscreen (calcium sensitive dye, ATP stimulation, same cells). It counts as cell-based. The note with it: maximum percent inhibition at concentrations between 10 μM and 100 μM, Calcium3 dye. As to the method: Two counterscreen assays were run on separate cell plates utilizing the same cells as described above. In the calcium counterscreen, the cells were loaded with a calcium sensitive dye (Calcium3 Dye, Part no. 8090, Molecular Devices Corp.) and stimulated by ATP to check for compounds that block the GPCR-mediated calcium activation step. In the KCl counterscreen, cells were stimulated with 120 mM KCl (to give a final concentration of 20 mM KCl) instead of ATP to check for compounds that inhibit the membrane potential response by virtue of being non-specific ion channel blockers.
as §1
(In general: Counterscreens check selectivity or assay interference.)

Structures are written as SMILES.

In the case of `COC(=O)c1ccc(-c2nc(-c3ccccc3)c(-c3ccccc3)[nH]2)cc1` [Example 1, methyl4-(4,5-diphenyl-1H-imidazol-2-yl)benzoate], the “TRPM5 Activity (maximum percent inhibition)” value in series [1] was found to be 79%. In addition, the “Calcium Counterscreen (maximum percent inhibition)” value in series [2] was determined as 0%.

One may read the melting point as the temperature of the solid-liquid transition. `OCc1ccc(-c2nc(-c3ccccc3)c(-c3ccccc3)[nH]2)cc1` [Example 2, [4-(4,5-diphenyl-1H-imidazol-2-yl)phenyl]methanol] gave a melting point of 50 °C. The “TRPM5 Activity (maximum percent inhibition)” value in series [1] is given as 50%. Besides, the “Calcium Counterscreen (maximum percent inhibition)” value in series [2] is recorded as 0%.

Consider `Nc1ccc(-c2nc(-c3ccccc3)c(-c3ccccc3)[nH]2)cc1` [Example 3, 4-(4,5-diphenyl-1H-imidazol-2-yl)aniline], for which the “TRPM5 Activity (maximum percent inhibition)” value in series [1] came out at 42%. The “Calcium Counterscreen (maximum percent inhibition)” value in series [2] is given as 0%.

Consider `Oc1ccc(-c2nc(-c3ccccc3)c(-c3ccccc3)[nH]2)cc1` [Example 4, 4-(4,5-diphenyl-1H-imidazol-2-yl)phenol], for which, in series [1], the “TRPM5 Activity (maximum percent inhibition)” value came out at 51%. For the same compound, the “Calcium Counterscreen (maximum percent inhibition)” value in series [2] is listed as 0%.

Take `COC(=O)Nc1ccc(-c2nc(-c3ccccc3)c(-c3ccccc3)[nH]2)cc1` [Example 5, methyl4-(4,5-diphenyl-1H-imidazol-2-yl)phenylcarbamate]: the “TRPM5 Activity (maximum percent inhibition)” value in series [1] was found to be 19%. For the same compound, the “Calcium Counterscreen (maximum percent inhibition)” value in series [2] is recorded as 0%.

As to `CC(=O)Nc1ccc(-c2nc(-c3ccccc3)c(-c3ccccc3)[nH]2)cc1` [Example 6, N-[4-(4,5-diphenyl-1H-imidazol-2-yl)phenyl]acetamide], the “TRPM5 Activity (maximum percent inhibition)” value in series [1] was found to be 29%. Also, the “Calcium Counterscreen (maximum percent inhibition)” value in series [2] stood at 0%.

Take `N#Cc1ccc(-c2nc(-c3ccccc3)c(-c3ccccc3)[nH]2)cc1` [Example 7, 4-(4,5-diphenyl-1H-imidazol-2-yl)benzonitrile]: the “TRPM5 Activity (maximum percent inhibition)” value in series [1] turned out to be 0%. For the same compound, the “Calcium Counterscreen (maximum percent inhibition)” value in series [2] turned out to be 0%.

Regarding `CS(=O)(=O)NCc1ccc(-c2nc(-c3ccccc3)c(-c3ccccc3)[nH]2)cc1` [Example 8, N-[4-(4,5-diphenyl-1H-imidazol-2-yl)benzyl]methanesulfonamide], in series [1], the “TRPM5 Activity (maximum percent inhibition)” value came out at 90%. Besides, the “Calcium Counterscreen (maximum percent inhibition)” value in series [2] is reported as 0%.

Consider `O=C(O)c1ccc(-c2nc(-c3ccccc3)c(-c3ccccc3)[nH]2)cc1` [Example 9, 4-(4,5-diphenyl-1H-imidazol-2-yl)benzoic acid], for which the “TRPM5 Activity (maximum percent inhibition)” value in series [1] is on record as 60%. The “Calcium Counterscreen (maximum percent inhibition)” value in series [2] was found to be 0%.

Consider `O=[N+]([O-])c1ccc(-c2nc(-c3ccccc3)c(-c3ccccc3)[nH]2)cc1` [Example 10, 2-(4-nitro-phenyl)-4,5-diphenyl-1H-imidazole], for which the “TRPM5 Activity (maximum percent inhibition)” value in series [1] was 100%. For the same compound, the “Calcium Counterscreen (maximum percent inhibition)” value in series [2] is listed as 0%.
